Source: PMC10047683, “A Novel Family of Lysosomotropic Tetracyclic Compounds for Treating Leukemia” (Cancers, 2023)

Key:
hERG = target: T1, hERG (Homo sapiens, UniProt Q12809); assay: In vitro hERG inhibition; type: biochemical
T1 construct: Eurofins Discovery Services (CEREP laboratories)
Method: (§1) All ADMET studies were performed in Eurofins Discovery Services (CEREP laboratories, Celle-Lévescault France). The pharmacokinetic studies were performed in Draconis Pharma SL (Barcelona, Spain) in CD-1 mice treated with 30 mg/kg EDK87 or EDK88 via SC or OG. Blood was collected by cardiac puncture at 0.5, 1, 2, 4, or 24 h.

[1] = ADME-Tox: clearance / metabolic rate; type: in vitro ADME
Method: as §1

AML cell lines [2] = assay: Seahorse oxygen consumption (OCR); type: cell-based; conditions: 5 and 10 µM, 24 h
Method: Seahorse studies were performed using the Agilent Seahorse XF Real-Time ATP Rate Assay Kit. […] Cells were washed and suspended in Seahorse medium (Seahorse XF medium with 2 mM glutamine, 10 mM glucose, 2 mM pyruvate) at a concentration of 1.4 × 10^6 (Mono Mac1) and 2.4 × 10^6 (HL60) cells per mL; 50 μL per well were seeded in 96-well Seahorse plates precoated with polylysine, centrifuged, and left to adhere for 20 min at 37 °C before adding prewarmed Seahorse medium to a final volume of 180 μL per well. Basal OCR and ECAR were measured, and the ATP rate assay was performed with the sequential injection of 1.5 μM oligomycin and 0.5 μM rotenone/antimycin A. A detailed description of this protocol was provided by the manufacturers. Mitochondrial ROS was quantified using the MitoSOX Red Mitochondrial Superoxide Indicator (Thermo Fischer Scientific, Waltham, MA, USA), as previously described. The activation of executive caspases was determined using CaspaseGlo® 3/7 Assay (Promega), following the manufacturer’s recommendations. The detection of Annexin-V staining was also described previously.

[3] = Pharmacokinetic study in mice; type: in vivo, CD-1 mice; conditions: 30 mg/kg orally and subcutaneously
Method: as §1

AML cell lines [4] = assay: Lysosomal mass with Lysotracker probe; type: cell-based; conditions: 10 µM, 24 h
Method: Lysosomal mass was determined using Lysotracker DeepRed (Thermo Fisher, Waltham, MA, USA), and analyzed with cytometry and microscopy, as explained previously. The lysosomal activity assays were performed following the guidance of the study that first introduced the Lysosomal Metriq probe. AML cell lines were lentivirally transduced with the pCW57.1 Lysosomal-METRIQ plasmid (Addgene #135401), and selected with puromycin (2 µg/mL). Cells were treated for 3 consecutive days with 3 µg/mL doxycycline (Sigma Aldrich, St. Louis, MO, USA), incubated with the compounds of interest for 24 h, and analyzed in the flow cytometer. Lysosomal activity was measured as the ratio between red fluorescence (acting as an internal control) and green fluorescence (located in the lysosomes and degraded to different degrees depending on the activity of the lysosomal compartment). For the Galectin 3 puncta assay, AML cell lines were lentivirally transduced with the mAG-Gal3 plasmid (Addgene #62734). Treatments and analysis were performed as described elsewhere. Then, 2 × 10^5 cells per ml were pulsed with dextran-rhodamine (0.25 mg/mL) for 24 h, chased for 2 h, treated with EDK compounds at the indicated concentrations for 48 h, attached to poly-L-lysine (50 μg/mL)-coated chambered coverslips (μ-Slide 8 well, Ibidi), imaged in a Zeiss LSM880 microscope, and analyzed with Fiji software.

[5] = tested on: intracellular calcium in HL60 cells; assay: Calcium mobilization assay (Fura2 probe); type: cell-based; conditions: 10 µM EDK-87/EDK-88, 50 µM chloroquine
Method: 1,000 cells of AML cell lines or 50,000 primary cells (both AML and lin-depleted UCB) were treated at the indicated concentration for 18 h, and cultured in 1 mL of MethoCult H4034 Optimum (StemCell Technologies, Vancouver, BC, Canada).
Colonies were screened based on morphology and cellularity at day 7 (cell lines) […]
Calcium mobilization assay
1 x 10^6 cells per mL were loaded for 30’ at 37 °C with the Fura-2-AM probe (Thermo Fisher) at a final 2 µM concentration in pre-warmed calcium- and magnesium-free Hanks BSA solution. Cells were then washed and resuspended in Hanks BSA solution with calcium and magnesium at 3 x 10^5 cells per mL. In parallel, 50µL of drugs in Hanks BSA solution with calcium and magnesium were added to 96-well black wall clear bottom plates and background fluorescence […]
Cells were then added to the plate
(50µL/well) and fluorescence was acquired at indicated timepoints using a Synergy HT Multi-Detection Microplate Reader (BioTek). For the analysis, all values were subtracted their corresponding background fluorescence, and the ratio 340/380 was calculated. Finally, ratios were normalized to vehicle-treated […]
Semi-Quantitative Real Time PCR

MonoMac-1 = assay: 7AAD and annexin-V staining, flow cytometry; type: cell-based; conditions: 10 µM, 24 h, representative plot
Method: (§2) Seahorse studies were performed using the Agilent Seahorse XF Real-Time ATP Rate Assay Kit. Briefly, MonoMac1 and HL60 cells were suspended in complete medium at a concentration of 5 × 10^5 cells per ml and treated with EDK-87/EDK-88 with the indicated compounds for 18 h. Cells were washed and suspended in Seahorse medium (Seahorse XF medium with 2 mM glutamine, 10 mM glucose, 2 mM pyruvate) at a concentration of 1.4 × 10^6 (Mono Mac1) and 2.4 × 10^6 (HL60) cells per mL; 50 μL per well were seeded in 96-well Seahorse plates precoated with polylysine, centrifuged, and left to adhere for 20 min at 37 °C before adding prewarmed Seahorse medium to a final volume of 180 μL per well. Basal OCR and ECAR were measured, and the ATP rate assay was performed with the sequential injection of 1.5 μM oligomycin and 0.5 μM rotenone/antimycin A. A detailed description of this protocol was provided by the manufacturers. Mitochondrial ROS was quantified using the MitoSOX Red Mitochondrial Superoxide Indicator (Thermo Fischer Scientific, Waltham, MA, USA), as previously described. The activation of executive caspases was determined using CaspaseGlo® 3/7 Assay (Promega), following the manufacturer’s recommendations. The detection of Annexin-V staining was also described previously.

KG-1 = assay: 7AAD and annexin-V staining, flow cytometry; type: cell-based; conditions: 10 µM, 24 h, representative plot
Method: as §2

ADME-Tox: solubility = type: physicochemical
Method: as §1

T1 sequence (Q12809 whole entry): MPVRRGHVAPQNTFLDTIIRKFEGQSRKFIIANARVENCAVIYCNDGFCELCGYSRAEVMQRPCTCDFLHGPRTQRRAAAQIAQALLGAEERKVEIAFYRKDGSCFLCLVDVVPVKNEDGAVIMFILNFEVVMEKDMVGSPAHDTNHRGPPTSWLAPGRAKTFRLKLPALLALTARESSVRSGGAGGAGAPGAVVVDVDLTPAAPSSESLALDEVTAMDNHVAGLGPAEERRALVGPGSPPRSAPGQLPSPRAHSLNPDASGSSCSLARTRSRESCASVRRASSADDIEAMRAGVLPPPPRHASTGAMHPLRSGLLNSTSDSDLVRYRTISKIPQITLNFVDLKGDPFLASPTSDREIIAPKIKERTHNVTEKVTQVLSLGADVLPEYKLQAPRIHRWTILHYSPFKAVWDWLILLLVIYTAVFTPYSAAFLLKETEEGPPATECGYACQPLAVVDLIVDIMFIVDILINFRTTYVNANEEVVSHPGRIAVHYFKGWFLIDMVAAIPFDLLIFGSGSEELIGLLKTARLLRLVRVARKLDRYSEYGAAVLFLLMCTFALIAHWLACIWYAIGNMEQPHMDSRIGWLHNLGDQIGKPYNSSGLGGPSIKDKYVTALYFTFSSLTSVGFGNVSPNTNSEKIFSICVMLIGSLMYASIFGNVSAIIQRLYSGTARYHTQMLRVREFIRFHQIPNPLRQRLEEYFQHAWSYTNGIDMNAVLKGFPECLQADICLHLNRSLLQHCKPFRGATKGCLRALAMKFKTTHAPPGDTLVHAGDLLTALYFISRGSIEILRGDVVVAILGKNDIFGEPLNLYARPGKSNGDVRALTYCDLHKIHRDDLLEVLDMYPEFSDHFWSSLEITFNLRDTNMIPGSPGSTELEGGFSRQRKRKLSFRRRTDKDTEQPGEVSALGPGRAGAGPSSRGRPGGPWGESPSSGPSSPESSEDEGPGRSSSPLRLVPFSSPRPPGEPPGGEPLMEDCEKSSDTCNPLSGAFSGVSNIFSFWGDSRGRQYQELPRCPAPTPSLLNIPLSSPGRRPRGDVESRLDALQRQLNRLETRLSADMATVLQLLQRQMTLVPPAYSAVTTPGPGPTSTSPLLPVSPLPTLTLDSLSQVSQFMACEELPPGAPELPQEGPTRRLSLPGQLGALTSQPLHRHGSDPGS

Question: For CN1CCC(=C2c3ccccc3-c3c2sc2ccccc32)CC1 [EDK-87], which hERG inhibition (hERG) is on record?
Answer: concerning results

Question: And the “metabolic rate as compared to EDK-88” value [1]?
Answer: higher

Question: What about the “oxygen consumption (OCR)” value (AML cell lines [2]) of the same compound?
Answer: drastic reduction in oxygen consumption

Question: What about the “clearance (PK)” value [3] of the same compound?
Answer: high

Question: And the plasma level [3]?
Answer: low

Question: What about the volume of distribution [3] of the same compound?
Answer: high

Question: What about the “lysosomal mass (Lysotracker)” value (AML cell lines [4]) of the same compound?
Answer: expansion of the lysosomal mass

Question: And the intracellular calcium mobilization [5]?
Answer: few changes in calcium release

Question: And the “Q1 of 7AAD/annexin V plot” value (MonoMac-1)?
Answer: 2.96

Question: What about the “Q2 of 7AAD/annexin V plot” value (MonoMac-1) of the same compound?
Answer: 9.41

Question: And the “Q3 of 7AAD/annexin V plot” value (MonoMac-1)?
Answer: 21.7

Question: What about the “Q4 of 7AAD/annexin V plot” value (MonoMac-1) of the same compound?
Answer: 65.9

Question: What about the “Q1 of 7AAD/annexin V plot” value (KG-1) of the same compound?
Answer: 0.61

Question: And the “Q2 of 7AAD/annexin V plot” value (KG-1)?
Answer: 10.0

Question: What about the “Q3 of 7AAD/annexin V plot” value (KG-1) of the same compound?
Answer: 50.3

Question: And the “Q4 of 7AAD/annexin V plot” value (KG-1)?
Answer: 39.1

Question: What about the “solubility as compared to EDK-88” value (ADME-Tox: solubility) of the same compound?
Answer: lower
